Values of other authors in publication PMC5599218 (Biomaterials, 2017).
“And” between values parts separate entries of the source, which are not always exact repeats. Equal values may be shown once.

What was measured:
[1] = DPV vaginal films, after 6h exposure, estimated; ref [59]
[2] = women using DPV vaginal rings for 7d; ref [54]
HIV-1 = conditions: ref [52]
[3] = oral daily dosing, 12h after the last dose; ref [52]

| DPV provided to human cervical explant tissues [1] | Mean vaginal fluid concentrations of DPV [2] [µg/mL] | Compound | in vitro IC50 (HIV-1) | ETR concentration in cervicovaginal fluid (CVF) [3] [µg/mL] |
| --- | --- | --- | --- | --- |
| 152–334 nM and 0.05–0.11 μg/mL | 0.7 to 7.1 | Cc1cc(C)c(Nc2ccnc(Nc3ccc(C#N)cc3)n2)c(C)c1 [DPV, Dapivirine] | – | – |
| – | – | Cc1cc(C#N)cc(C)c1Oc1nc(Nc2ccc(C#N)cc2)nc(N)c1Br [ETR, etravirine] | ~ 2 ng/mL | 0.857 |
